What was measured:
[1] = Particle size analysis of dry-milled products (laser diffraction, Shimadzu SALD-2300); format: physicochemical
Description: Milling was performed for Examples 1a to 1c using an air jet mill (Equipment code: CP-AJM-01; Promas engineers) with the following parameters: Micronisation was repeated in all examples by performing the air jet milling for a second time using the same parameters. This allowed the particle size D90 to be reduced to less than 10 μm. [table] Four drops of Tween 20 were added to 25 mL of water and the mixture was sonicated for 3 minutes to form the dispersant solution. 0.05 g of milled material was transferred into a 250 mL glass beaker. 25 mL of the dispersant solution (Tween 20/water mixture) was added to the beaker with continuous swirling for 2 to 3 minutes. The suspension was transferred into the measuring unit and the particle size distribution measurements were conducted in triplicate.

[2] = Single dose oral pharmacokinetic studies in rabbits; format: in vivo, male New Zealand White rabbits; conditions: for Plasma concentration, mean: 90 mg/kg b.w. oral; for Cmax / MRT last / Tmax / AUC(0-t) / AUC(0-inf) / half-life: male, New Zealand White, plasma, po
Description: The studies detailed below (and referred to as Examples 2 to 8) were conducted to provide comparative single dose oral pharmacokinetics data for Compound 1, as well as sodium and potassium salts of that compound, using non-coated and enteric-coated capsules in male New Zealand White rabbits.
Compound 1 was made using the process described in WO 2011/004162 and milled as described for Example 1c. The non-coated or enteric coated gelatin capsules were individually filled with 180 mg of dry-milled Compound 1 together with accompanying excipients as indicated. Both capsule types were filled with Compound 1 together with 1.8 mg of sodium docusate, 0.18 mg of PVP K30 and 9 mg of mannitol.
Similarly, Compound 2, non-coated or enteric coated gelatin capsules were individually filled with 180 mg of dry-milled Compound 2 (as obtained in Example 1f) together with 1.8 mg of sodium docusate, 0.18 mg of PVP K30 and 9 mg of mannitol.
For Compound 3, non-coated or enteric coated gelatin capsules were individually filled with 90 mg of dry-milled Compound 3 (as obtained in Example 1i) together with 0.90 mg of sodium docusate, 0.09 mg of PVP K30 and 4.50 mg of mannitol.
40 mL of the 2% w/v methyl cellulose solution was added to a 250 mL conical flask together with 10 g of 2 mm glass beads, and vigorously stirred. Compound 1 (720 mg) was slowly added to the solution and the mixture was with continuously stirred for 1 h. The homogenate was transferred to separate flask and its pH recorded. The suspension formulation was prepared before administration to the animals.
Adult healthy male New Zealand white rabbits aged approximately 2 to 3 months old were used for experimentation after 7 days of acclimatization.
To dose the filled capsules, a soft plastic dosing tube was used. The filled capsule was inserted into the dosing tube so that the short end of the capsule protrudes slightly from the tip of the tube. The tip of the capsule was dipped in mineral oil to aid swallowing.
To dose the suspension, an infant feeding tube was used. The feeding tube was inserted through the mouth of the rabbit to the oesophagus and the stomach, and ascertained that it has not been placed in the trachea before dosing to the animals. The suspension of the Compound 1 was administered through the feeding tube. After the administration of the suspension, drinking water of approximately 2.0-2.5 mL was administered to flush out the contents in the feeding tube.
The animals were restrained in a rabbit restrainer and blood samples (400-500 μL/time point) were collected via the central ear artery at 0.16, 0.25, 0.50, 1.0, 2.0, 4.0, 6.0, 8.0, 24.0, 48.0 and 72 hours post-dosing. Collected blood specimens were centrifuged at 4000 or 6000 rpm, 4° C. for 10 minutes and plasma samples were separated and stored at −80° C. until analysis.
Concentrations of the analyte of Compound 1 in New Zealand white rabbits was determined using an API 3200 Q-trap LC-MS/MS system.
Chromatographic separation was achieved on Zorbax C18, 50×4.6 mm, 5 μm column with methanol-0.1% formic acid as mobile phase with gradient elution. The flow rate was set at 1.0 mL min^−1. Detection was accomplished by a triple-quadrupole tandem mass spectrometer in multiple-reaction monitoring (MRM) scanning via electrospray ionization source, applied in the positive mode. The optimised mass transition ion-pairs for quantitation were m/z 379.999→125.000 for the compound 1 and m/z 376.165→165.00 for the ISD (Haloperidol). Calibration plots were linear over the range of 11.062 to 20594.820 ng/mL.
The data of plasma concentration to respective time points for the analyte Compound 1 were used for the pharmacokinetic analysis. Pharmacokinetic analysis was performed using non-compartmental analysis (NCA) module of Phoenix WinNonlin 6.3 software to determine the following pharmacokinetic parameters: • Cmax • Tmax • AUC0-t • AUC0-∞ • T1/2 • MRT […]

[3] = after 1st milling (air jet mill)
[4] = after 2nd milling (air jet mill)
[5] = rabbit, 25 mg/kg, enteric coated capsule with MgO, 25 mg/kg b.w. oral single dose, rabbit plasma (Example 9)
[6] = rabbit, 25 mg/kg, enteric coated capsule with mannitol, 25 mg/kg b.w. oral single dose, rabbit plasma (Example 10)
[7] = rabbit, 53 mg/kg, enteric coated capsule with MgO, 53 mg/kg b.w. (equivalent to 50 mg/kg Compound 1) oral single dose, rabbit plasma (Example 11)
[8] = rabbit, 90 mg/kg, enteric coated capsule, 90 mg/kg b.w. oral single dose, rabbit plasma (Examples 5, 6, 7)
[9] = rabbit, 90 mg/kg, non-coated capsule, 90 mg/kg b.w. oral single dose, rabbit plasma (Examples 2, 3, 4)

## O=C(Nc1nc(=O)n(Cc2ccc(Cl)cc2)s1)c1ccc(Cl)cc1.[Na] [Compound 2, 4-chloro-N-[2-[(4-chlorophenyl)methyl]-3-oxo-1,2,4-thiadiazol-5-yl]benzamide sodium salt]
[1]; [3]
  Particle size distribution D10: 0.508 μm
  Particle size distribution D50: 3.58 μm
  Particle size distribution D90: 11.5 μm
  Particle size distribution D100: 31.1 μm
[1]; [4]
  Particle size distribution D10: 0.414 μm
  Particle size distribution D50: 2.70 μm
  Particle size distribution D90: 8.29 μm
  Particle size distribution D100: 24.0 μm
[1]; before milling
  Particle size distribution D10: 1.11 μm
  Particle size distribution D50: 7.62 μm
  Particle size distribution D90: 31.7 μm
  Particle size distribution D100: 185 μm
[2]; 0.00 h, enteric coated capsule, rabbit
  Plasma concentration, mean: 0.000 ng/mL
[2]; 0.00 h, non-coated capsule, rabbit
  Plasma concentration, mean: 0.000 ng/mL
[2]; 0.16 h, enteric coated capsule, rabbit
  Plasma concentration, mean: 0.000 ng/mL
[2]; 0.16 h, non-coated capsule, rabbit
  Plasma concentration, mean: 0.000 ng/mL
[2]; 0.25 h, enteric coated capsule, rabbit
  Plasma concentration, mean: 0.000 ng/mL
[2]; 0.25 h, non-coated capsule, rabbit
  Plasma concentration, mean: 51.798 ng/mL
[2]; 0.50 h, enteric coated capsule, rabbit
  Plasma concentration, mean: 0.000 ng/mL
[2]; 0.50 h, non-coated capsule, rabbit
  Plasma concentration, mean: 206.386 ng/mL
[2]; 1.00 h, enteric coated capsule, rabbit
  Plasma concentration, mean: 9.027 ng/mL
[2]; 1.00 h, non-coated capsule, rabbit
  Plasma concentration, mean: 594.725 ng/mL
[2]; 2.00 h, enteric coated capsule, rabbit
  Plasma concentration, mean: 13.276 ng/mL
[2]; 2.00 h, non-coated capsule, rabbit
  Plasma concentration, mean: 1377.183 ng/mL
[2]; 4.00 h, enteric coated capsule, rabbit
  Plasma concentration, mean: 624.216 ng/mL
[2]; 4.00 h, non-coated capsule, rabbit
  Plasma concentration, mean: 15776.855 ng/mL
[2]; 6.00 h, enteric coated capsule, rabbit
  Plasma concentration, mean: 11866.638 ng/mL
[2]; 6.00 h, non-coated capsule, rabbit
  Plasma concentration, mean: 46144.063 ng/mL
[2]; 8.00 h, enteric coated capsule, rabbit
  Plasma concentration, mean: 18413.782 ng/mL
[2]; 8.00 h, non-coated capsule, rabbit
  Plasma concentration, mean: 71215.612 ng/mL
[2]; 24.00 h, enteric coated capsule, rabbit
  Plasma concentration, mean: 99879.409 ng/mL
[2]; 24.00 h, non-coated capsule, rabbit
  Plasma concentration, mean: 98809.233 ng/mL
[2]; 48.00 h, enteric coated capsule, rabbit
  Plasma concentration, mean: 101178.612 ng/mL
[2]; 48.00 h, non-coated capsule, rabbit
  Plasma concentration, mean: 93029.388 ng/mL
[2]; 72.00 h, enteric coated capsule, rabbit
  Plasma concentration, mean: 90966.319 ng/mL
[2]; 72.00 h, non-coated capsule, rabbit
  Plasma concentration, mean: 84071.553 ng/mL
[2]; dry milled, capsules, 90 mg/kg oral, rabbit
  improvement in systemic exposure compared with the milled free base active ingredient: greatest improvements
[2]; dry milled, non-coated or enteric-coated capsules, 90 mg/kg oral, rabbit
  increase in the systemic exposure compared to a standard suspension of the active ingredient (example 8): up to six-fold
[2]; enteric coated capsule with MgO, 53 mg/kg oral, rabbit (Example 11)
  systemic exposure when formulated together with an alkaline excipient: significant amount of systemic exposure
[2]; enteric coated capsule, 90 mg/kg b.w. oral single dose, rabbit plasma (Examples 5, 6, 7)
  AUCextrap: 88.81 ± 3.497%
[2]; enteric coated capsules, 25 mg/kg oral, rabbit, Example 9 (MgO) vs Example 10 (mannitol)
  systemic exposure when formulated with an alkaline excipient in comparison with formulation in the absence of an alkaline excipient: increase
[2]; [5]
  Cmax: 49600 ± 4800 ng/mL
  MRT last: 27.67 ± 0.11 h
  Tmax: 24 h
[2]; [6]
  Cmax: 47400 ± 7060 ng/mL
  MRT last: 30 ± 1.73 h
  Tmax: 32 ± 13.9 h
[2]; [7]
  AUC(0-t): 8930 ± 1190 µg·h/mL
  Cmax: 153000 ± 24300 ng/mL
  MRT last: 40.9 ± 1.43 h
[2]; [8]
  AUC(0-inf): 55700 ± 22700 µg·h/mL
  AUC(0-t): 5710 ± 1140 µg·h/mL
  Cmax: 101000 ± 17000 ng/mL
  MRT last: 43 ± 1.59 h
  Tmax: 32 ± 13.9 h
  half-life: 368 ± 109 h
[2]; [9]
  AUC(0-inf): 38100 ± 34700 µg·h/mL
  AUC(0-t): 5980 ± 2270 µg·h/mL
  Cmax: 99000 ± 34600 ng/mL
  MRT last: 38.8 ± 1.2 h
  Tmax: 32 ± 13.9 h
  half-life: 227 ± 140 h
[2]; non-coated capsule, 90 mg/kg b.w. oral single dose, rabbit plasma (Examples 2, 3, 4)
  AUCextrap: 79.01 ± 8.87%
